Patent publication EP4667483A1, “HUMAN TRANSFERRIN RECEPTOR-BINDING PEPTIDE” (JCR Pharmaceuticals Co., Ltd., priority 2023, dated 2024)
Numbered stars: 1 amine (or outer) side, 2 acyl side, 3 side chain; on linkers, the order of the positions; unused ones are H or OH. Bridge positions count the residues as written; N and C are the ends. Square brackets hold non-standard residues; d marks the D form. Peptide text beside a SMILES is read from it. * marks the point of attachment. Trp(1-CH2COOH) = N[C@@H](Cc1cn(CC(=O)O)c2ccccc12)C(=O)O; X2 = O=C([C@H](Cc1cn(CCO)c2ccccc12)N[*:1])[*:2]; Phe(3-COOH) = N[C@@H](Cc1cccc(C(=O)O)c1)C(=O)O; Tyr(2,6-F2) = N[C@@H](Cc1c(F)cc(O)cc1F)C(=O)O; NMePhe(3-Cl) = CN[C@@H](Cc1cccc(Cl)c1)C(=O)O; Trp(1-Me) = Cn1cc(C[C@H](N)C(=O)O)c2ccccc21; 3Pal(6-OMe) = COc1ccc(C[C@H](N)C(=O)O)cn1; NMeY = CN[C@@H](Cc1ccc(O)cc1)C(=O)O; Nva(3-Et) = CCC(CC)[C@H](N)C(=O)O; PEG4 = NCCOCCOCCOCCOCCC(=O)O; Carboxymethyl = O=C(O)C*

Target: human transferrin receptor (hTfR) (Homo sapiens, UniProt P02786)
Sequence (P02786 whole entry): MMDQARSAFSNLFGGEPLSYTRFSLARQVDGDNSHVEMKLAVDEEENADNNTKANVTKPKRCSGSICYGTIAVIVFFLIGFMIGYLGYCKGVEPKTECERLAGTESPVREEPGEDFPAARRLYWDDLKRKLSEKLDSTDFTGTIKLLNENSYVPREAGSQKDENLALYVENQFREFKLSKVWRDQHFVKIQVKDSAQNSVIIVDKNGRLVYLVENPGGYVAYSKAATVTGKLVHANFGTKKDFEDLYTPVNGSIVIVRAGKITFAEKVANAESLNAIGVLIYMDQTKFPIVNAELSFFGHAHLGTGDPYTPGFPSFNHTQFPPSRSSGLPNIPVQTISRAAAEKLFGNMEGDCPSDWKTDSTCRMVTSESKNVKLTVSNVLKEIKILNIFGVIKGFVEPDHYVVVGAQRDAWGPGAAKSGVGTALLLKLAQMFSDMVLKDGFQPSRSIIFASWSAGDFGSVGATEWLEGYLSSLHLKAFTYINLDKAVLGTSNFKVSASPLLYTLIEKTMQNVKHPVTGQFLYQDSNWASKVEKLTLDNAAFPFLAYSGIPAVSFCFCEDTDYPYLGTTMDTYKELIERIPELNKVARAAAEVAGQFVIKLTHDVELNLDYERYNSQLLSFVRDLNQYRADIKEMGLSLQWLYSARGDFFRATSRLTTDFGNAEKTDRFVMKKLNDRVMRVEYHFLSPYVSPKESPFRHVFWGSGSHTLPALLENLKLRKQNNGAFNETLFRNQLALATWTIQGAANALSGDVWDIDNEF
Assay: Evaluation of pH dependence (ratio of SPR koff or KD at pH 6.0 to pH 7.4)
Type: binding
Settings: ratio of koff at pH 6.0 to pH 7.4
Protocol: The ratio of the calculated koff or KD values under pH 6.0 conditions to those under pH 7.4 conditions was calculated to check pH dependency.

Question: Which “dependency koff pH6.0/7.4” value does the source give for `CC[C@H](C)[C@@H]1NC(=O)[C@H](Cc2ccc(OCC(=O)O)cc2)NC(=O)[C@H](Cc2ccc(O)cc2)NC(=O)[C@H](CC(N)=O)NC(=O)[C@H](Cc2cn(CCO)c3ccccc23)NC(=O)[C@H](C(C)C)NC(=O)[C@H](Cc2cccc(Cl)c2)N(C)C(=O)[C@H]([C@@H](C)O)NC(=O)[C@H](C)NC(=O)CSC[C@@H](C(=O)NCCOCCOCCOCCOCCC(N)=O)NC(=O)[C@H](Cc2ccc(O)cc2)N(C)C(=O)[C@H](Cc2cccc(C(=O)O)c2)NC(=O)[C@H](CCCNC(=N)N)NC(=O)[C@H](CCC(N)=O)NC(=O)[C@H]([C@@H](C)CC)NC1=O` [compound 77] ({CH2CO}-AT[NMePhe(3-Cl)]V[X2]NYY(Carboxymethyl)IIQR[Phe(3-COOH)][NMeY]C[PEG4]-NH2; thioether N-15) here?
Answer: Its value is 4.46.

Question: How did the “dependency koff pH6.0/7.4” value turn out when `CCC(CC)[C@@H]1NC(=O)[C@H](Cc2ccc(OC)nc2)NC(=O)[C@H](Cc2ccc(O)cc2)NC(=O)[C@H](CC(N)=O)NC(=O)[C@H](Cc2cn(CC(=O)O)c3ccccc23)NC(=O)[C@H](C(C)C)NC(=O)[C@H](Cc2cccc(Cl)c2)N(C)C(=O)[C@H](C(C)C)NC(=O)[C@H](C)NC(=O)CSC[C@@H](C(=O)NCCOCCOCCOCCOCCC(N)=O)NC(=O)[C@H](Cc2ccc(O)cc2)N(C)C(=O)[C@H](Cc2cccc(C(=O)O)c2)NC(=O)[C@H](CCCNC(=N)N)NC(=O)[C@H](CCC(N)=O)NC(=O)[C@H]([C@@H](C)CC)NC1=O` [compound 90] ({CH2CO}-AV[NMePhe(3-Cl)]V[Trp(1-CH2COOH)]NY[3Pal(6-OMe)][Nva(3-Et)]IQR[Phe(3-COOH)][NMeY]C[PEG4]-NH2; thioether N-15) was run?
Answer: The value was 8.01.

Question: `CC[C@H](C)[C@@H]1NC(=O)[C@H](Cc2ccc(OCC(=O)O)cc2)NC(=O)[C@H](Cc2c(F)cc(O)cc2F)NC(=O)[C@H](CC(N)=O)NC(=O)[C@H](Cc2cn(CC(=O)O)c3ccccc23)NC(=O)[C@H](C(C)C)NC(=O)[C@H](Cc2cccc(Cl)c2)N(C)C(=O)[C@H](C(C)C)NC(=O)[C@H](C)NC(=O)CSC[C@@H](C(=O)NCCOCCOCCOCCOCCC(N)=O)NC(=O)[C@H](Cc2ccc(O)cc2)N(C)C(=O)[C@H](Cc2cccc(C(=O)O)c2)NC(=O)[C@H](CCCNC(=N)N)NC(=O)[C@H](CCC(N)=O)NC(=O)[C@H]([C@@H](C)CC)NC1=O` [compound 78] ({CH2CO}-AV[NMePhe(3-Cl)]V[Trp(1-CH2COOH)]N[Tyr(2,6-F2)]Y(Carboxymethyl)IIQR[Phe(3-COOH)][NMeY]C[PEG4]-NH2; thioether N-15) was tested. Which “dependency koff pH6.0/7.4” value did it give?
Answer: Its value is 4.38.

Question: With `CC[C@H](C)[C@@H]1NC(=O)[C@H](Cc2ccc(OCC(=O)O)cc2)NC(=O)[C@H](Cc2ccc(O)cc2)NC(=O)[C@H](CC(N)=O)NC(=O)[C@H](Cc2cn(C)c3ccccc23)NC(=O)[C@H](C(C)C)NC(=O)[C@H](Cc2cccc(Cl)c2)N(C)C(=O)[C@H](C(C)C)NC(=O)[C@H](C)NC(=O)CSC[C@@H](C(=O)NCCOCCOCCOCCOCCC(N)=O)NC(=O)[C@H](Cc2ccc(O)cc2)N(C)C(=O)[C@H](Cc2cccc(C(=O)O)c2)NC(=O)[C@H](CCCNC(=N)N)NC(=O)[C@H](CCC(N)=O)NC(=O)[C@H]([C@@H](C)CC)NC1=O` [compound 79] ({CH2CO}-AV[NMePhe(3-Cl)]V[Trp(1-Me)]NYY(Carboxymethyl)IIQR[Phe(3-COOH)][NMeY]C[PEG4]-NH2; thioether N-15) as the molecule, how does the “dependency koff pH6.0/7.4” value read?
Answer: Its value is 5.31.
